Assay results taken from US20220002280A1, “COMPOUNDS AND METHODS OF USE” (Ferro Therapeutics, Inc., priority 2019, published 2022).
Structures can show the parent of a compound that is named as a salt.

Key:
Format in all cases: cell-based, human
786-O = assay: Cell proliferation (Alamar Blue) assay, 786-O; settings: 786-O cells, 24 h treatment
Protocol: (§1) A cell viability assay was performed to assess the potency of the compounds in human cancer cell lines 786-0 (renal cell carcinoma), SJSA-1 (osteosarcoma), and/or A431 (epidermoid carcinoma). Additional cell lines, such as pancreatic cancer cell lines (e.g., Panc 02.13, BxPC-3, Panc 12, Panc 02.03, Panc 6.03, PSN-1, HPAC, and Capan-1), prostate cancer cell lines (e.g., PC-3, DU145, 22Rv1, NCI-H660, BPH1, LNCaP, BM-1604, and MDA PCa 2b), etc., can be tested in a similar method.
(§2) Cells (SJSA-1, 786-0 and/or A431) were seeded (5000 cells/100 μL/well) in 96-well tissue culture plate and incubated at 37° C./5% CO2 for 16-24 hours. The cells were then treated with compounds (25 μL of 5×). The compound concentrations were 10-0.0005 μM prepared in 3-fold serial dilutions with final DMSO concentration of 1%. The plates were then incubated for 24h at 37° C./5% CO2 in a moist environment. Then Alamar Blue™ reagent (final concentration 1×-12.5 μL) was added to each well and incubated for 1.5 hours at 37° C./5% CO2. The plates were read on fluorescence reader at 540 nm excitation and 590 nm emission wavelengths. The IC50 values were subsequently determined using a sigmoidal dose-response curve (variable slope) in GraphPad Prism® 5 software.

SJSA-1 = assay: Cell proliferation (Alamar Blue) assay, SJSA-1; settings: SJSA-1 cells, 24 h treatment
Protocol: as §1, §2

A431 = assay: Cell proliferation (Alamar Blue) assay, A431; settings: 24 h treatment
Protocol: as §1, §2

[1] = Homo sapiens, A-431, A431 cells

For `COC(=O)c1ccc([C@@H]2c3ccc(OC)cc3C[C@H](C)N2C(=O)CCl)cc1` [Compound 6, methyl 4-((1R,3S)-2-(2-chloroacetyl)-6-methoxy-3-methyl-1,2,3,4-tetrahydroisoquinolin-1-yl)benzoate], the IC50 (786-O; Homo sapiens, 786-0, 24 h) was 3 µM, the IC50 (SJSA-1; Homo sapiens) was 3.2 µM and the IC50 (A431; [1]) was > 10 µM.

`C#CC(=O)N1[C@@H](CCCC)Cc2cc(OC)ccc2[C@@H]1C12CC(NC(=O)c3ccncc3)(C1)C2` [Compound 96, N-(3-((1S,3S)-3-butyl-6-methoxy-2-propioloyl-1,2,3,4-tetrahydroisoquinolin-1-yl)bicyclo[1.1.1]pentan-1-yl)isonicotinamide] was tested, and the IC50 (786-O; Homo sapiens, 786-0, 24 h) was 0.163 µM, the IC50 (SJSA-1; Homo sapiens) was 0.368 µM and the IC50 (A431; [1]) was > 10 µM.

With `COc1ccc2c(c1)C[C@H](C)N(C(=O)CCl)[C@H]2c1ccc(N2CCOCC2)cc1` [Compound 33] the IC50 (786-O; Homo sapiens, 786-0, 24 h) was 0.259 µM.

`C#CC(=O)N1[C@@H](CCCC)Cc2cc(OC)ccc2[C@@H]1c1ccc(C(=O)NC2CCC2)nc1` [Compound 15, 5-((1R,3S)-3-butyl-6-methoxy-2-propioloyl-1,2,3,4-tetrahydroisoquinolin-1-yl)-N-cyclobutylpicolinamide] was tested, and the IC50 (786-O; Homo sapiens, 786-0, 24 h) was 0.01 µM, the IC50 (SJSA-1; Homo sapiens) was 0.018 µM and the IC50 (A431; [1]) was 3.5 µM.

For `C#CC(=O)N1[C@@H](CCCC)Cc2cc(OC)ccc2[C@@H]1c1ccc(NC(=O)OCCCCC)cc1` [Compound 98, pentyl N-{4-[(1S,3S)-3-butyl-6-methoxy-2-(prop-2-ynoyl)-1,2,3,4-tetrahydroisoquinolin-1-yl]phenyl}carbamate], the IC50 (786-O; Homo sapiens, 786-0, 24 h) was 0.024 µM, the IC50 (SJSA-1; Homo sapiens) was 0.053 µM and the IC50 (A431; [1]) was 8.92 µM.

Compound `C#CC(=O)N1[C@H](c2ccc(F)cc2)c2ccc(OC)cc2C[C@@H]1C` [Compound 10] has an IC50 (786-O; Homo sapiens, 786-0, 24 h) of 0.164 µM, an IC50 (SJSA-1; Homo sapiens) of 0.278 µM and an IC50 (A431; [1]) of 8.6 µM.

`C#CC(=O)N1[C@@H](CCCC)Cc2cc(OC)ccc2[C@@H]1c1ccc(CNC23CC(C2)C3)cc1` [Compound 100] gave an IC50 (786-O; Homo sapiens, 786-0, 24 h) of 0.013 µM, an IC50 (SJSA-1; Homo sapiens) of 0.021 µM and an IC50 (A431; [1]) of 4.06 µM.

`CCCC[C@H]1Cc2cc(OC)ccc2[C@H](c2ccc(C(=O)NC3CCC3)cc2)N1C(=O)CCl` [Compound 13, 4-((1S,3S)-3-butyl-2-(2-chloroacetyl)-6-methoxy-1,2,3,4-tetrahydroisoquinolin-1-yl)-N-cyclobutylbenzamide] showed an IC50 (786-O; Homo sapiens, 786-0, 24 h) of 0.002 µM, an IC50 (SJSA-1; Homo sapiens) of 0.005 µM and an IC50 (A431; [1]) of 3.6 µM.

`C#CC(=O)N1[C@@H](CCCC)Cc2cc(OC)ccc2[C@@H]1C1CCN(C)CC1` [Compound 54, 1-((3S)-3-butyl-6-methoxy-1-(1-methylpiperidin-4-yl)-3,4-dihydroisoquinolin-2(1H)-yl)prop-2-yn-1-one] gave an IC50 (786-O; Homo sapiens, 786-0, 24 h) of 0.743 µM, an IC50 (SJSA-1; Homo sapiens) of 0.659 µM and an IC50 (A431; [1]) of 5.8 µM.

`C#CC(=O)N1[C@@H](CCCC)Cc2cc(OC)ccc2[C@@H]1c1ccc(NC(=O)C2CCC2)cc1` [Compound 102, N-(4-((1S,3S)-3-butyl-6-methoxy-2-propioloyl-1,2,3,4-tetrahydroisoquinolin-1-yl)phenyl)cyclobutanecarboxamide] gave an IC50 (786-O; Homo sapiens, 786-0, 24 h) of 0.021 µM, an IC50 (SJSA-1; Homo sapiens) of 0.021 µM and an IC50 (A431; [1]) of 6.13 µM.

`C#CC(=O)N1[C@@H](CCCC)Cc2cc(OC)ccc2[C@@H]1c1ccc(C(=O)NC23CC4CC(CC(C4)C2)C3)cc1` [Compound 38, N-((3R,5R,7R)-adamantan-1-yl)-4-((1S,3S)-3-butyl-6-methoxy-2-propioloyl-1,2,3,4-tetrahydroisoquinolin-1-yl)benzamide] showed an IC50 (786-O; Homo sapiens, 786-0, 24 h) of 0.005 µM, an IC50 (SJSA-1; Homo sapiens) of 0.01 µM and an IC50 (A431; [1]) of 10 µM.

`COC(=O)c1ccc([C@H]2c3ccccc3C[C@H](C)N2C(=O)CCl)cc1` [Compound 35] showed an IC50 (SJSA-1; Homo sapiens) of 2.56 µM.

Work on `CCCC[C@H]1Cc2cc(OC)ccc2[C@H](c2ccc(NC34CC5CC(CC(C5)C3)C4)cc2)N1C(=O)CCl` [Compound 27, 1-((1S,3S)-1-(4-(((3R,5R,7R)-adamantan-1-yl)amino)phenyl)-3-butyl-6-methoxy-3,4-dihydroisoquinolin-2(1H)-yl)-2-chloroethan-1-one] yielded an IC50 (786-O; Homo sapiens, 786-0, 24 h) of 0.004 µM, an IC50 (SJSA-1; Homo sapiens) of 0.006 µM and an IC50 (A431; [1]) of 8.4 µM.

With `C#CC(=O)N1[C@@H](CCCC)Cc2cc(OC)ccc2[C@@H]1C12CC(N)(C1)C2` [Compound 76, 1-((1S,3S)-1-(3-aminobicyclo[1.1.1]pentan-1-yl)-3-butyl-6-methoxy-3,4-dihydroisoquinolin-2(1H)-yl)prop-2-yn-1-one] the IC50 (786-O; Homo sapiens, 786-0, 24 h) was 0.187 µM, the IC50 (SJSA-1; Homo sapiens) was 0.623 µM and the IC50 (A431; [1]) was > 10 µM.

For `C#CC(=O)N1[C@@H](CCCC)Cc2cc(OC)ccc2[C@@H]1c1ccc2ncccc2c1` [Compound 97, 1-((1S,3S)-3-butyl-6-methoxy-1-(quinolin-6-yl)-3,4-dihydroisoquinolin-2(1H)-yl)prop-2-yn-1-one], the IC50 (786-O; Homo sapiens, 786-0, 24 h) was 0.026 µM, the IC50 (SJSA-1; Homo sapiens) was 0.068 µM and the IC50 (A431; [1]) was > 10 µM.

Compound `C#CC(=O)N1[C@@H](CCCC)Cc2cc(OC)ccc2[C@@H]1c1ccc(-c2nc(C)no2)cc1` [Compound 55, 1-((1S,3S)-3-butyl-6-methoxy-1-(4-(3-methyl-1,2,4-oxadiazol-5-yl)phenyl)-3,4-dihydroisoquinolin-2(1H)-yl)prop-2-yn-1-one] has an IC50 (786-O; Homo sapiens, 786-0, 24 h) of 0.027 µM, an IC50 (SJSA-1; Homo sapiens) of 0.032 µM and an IC50 (A431; [1]) of 2.3 µM.

Work on `C#CC(=O)N1[C@@H](CCCC)Cc2cc(OC)ccc2[C@@H]1c1ccc(NC23CC4CC(CC(C4)C2)C3)cc1` [Compound 101, 1-((1S,3S)-1-(4-(((3R,5R,7R)-adamantan-1-yl)amino)phenyl)-3-butyl-6-methoxy-3,4-dihydroisoquinolin-2(1H)-yl)prop-2-yn-1-one hydrochloride] yielded an IC50 (786-O; hydrochloride) of 0.008 µM, an IC50 (SJSA-1; hydrochloride) of 0.0115 µM and an IC50 (A431; A431 cells, hydrochloride) of 6.87 µM.

With `C[C@H]1Cc2ccccc2C(c2ccc(N3CCOCC3)cc2)N1C(=O)CCl` (stereo partly drawn) [Compound 1, 2-chloro-1-((3S)-3-methyl-1-(4-morpholinophenyl)-3,4-dihydroisoquinolin-2(1H)-yl)ethan-1-one] the IC50 (786-O; Homo sapiens, 786-0, 24 h) was 2 µM and the IC50 (SJSA-1; Homo sapiens) was 2.8 µM.

With `C#CC(=O)N1[C@@H](CCCC)Cc2cc(OC)ccc2[C@@H]1c1ccc(NC(=O)c2ccnc(C)c2)cc1` [Compound 95, N-{4-[(1S,3S)-3-butyl-6-methoxy-2-(prop-2-ynoyl)-1,2,3,4-tetrahydroisoquinolin-1-yl]phenyl}-2-methylpyridine-4-carboxamide] the IC50 (786-O; Homo sapiens, 786-0, 24 h) was 0.037 µM, the IC50 (SJSA-1; Homo sapiens) was 0.2 µM and the IC50 (A431; [1]) was > 10 µM.

`C#CC(=O)N1[C@@H](CCCC)Cc2cc(OC)ccc2[C@@H]1c1ccn(C)n1` [Compound 50, 1-[(1R,3S)-3-butyl-6-methoxy-1-(1-methyl-1H-pyrazol-3-yl)-1,2,3,4-tetrahydroisoquinolin-2-yl]prop-2-yn-1-one] was tested, and the IC50 (786-O; Homo sapiens, 786-0, 24 h) was 0.065 µM, the IC50 (SJSA-1; Homo sapiens) was 0.101 µM and the IC50 (A431; [1]) was > 10 µM.

With `COC(=O)c1ccc([C@H]2c3cc(OC)c(OC)cc3C[C@H](C)N2C(=O)CCl)cc1` [Compound 34] the IC50 (786-O; Homo sapiens, 786-0, 24 h) was 0.592 µM.

`C#CC(=O)N1[C@@H](CCCC)Cc2cc(OC)ccc2[C@@H]1c1ccccn1` [Compound 49, 1-((1R,3S)-3-butyl-6-methoxy-1-(pyridin-2-yl)-3,4-dihydroisoquinolin-2(1H)-yl)prop-2-yn-1-one] was tested, and the IC50 (786-O; Homo sapiens, 786-0, 24 h) was 0.023 µM, the IC50 (SJSA-1; Homo sapiens) was 0.04 µM and the IC50 (A431; [1]) was 6.6 µM.

With `C#CC(=O)N1[C@@H](CCCC)Cc2cc(OC)ccc2[C@@H]1C1CCCCC1` [Compound 39, 1-((1S,3S)-3-butyl-1-cyclohexyl-6-methoxy-3,4-dihydroisoquinolin-2(1H)-yl)prop-2-yn-1-one] the IC50 (786-O; Homo sapiens, 786-0, 24 h) was 0.158 µM, the IC50 (SJSA-1; Homo sapiens) was 0.17 µM and the IC50 (A431; [1]) was > 10 µM.

With `C#CC(=O)N1[C@@H](CCCC)Cc2cc(OC)ccc2[C@@H]1c1ccc(Nc2cccnc2)cc1` [Compound 94, 1-[(1S,3S)-3-butyl-6-methoxy-1-{4-[(pyridin-3-yl)amino]phenyl}-1,2,3,4-tetrahydroisoquinolin-2-yl]prop-2-yn-1-one] the IC50 (786-O; Homo sapiens, 786-0, 24 h) was 0.108 µM, the IC50 (SJSA-1; Homo sapiens) was 0.047 µM and the IC50 (A431; [1]) was > 10 µM.

With `COC(=O)c1ccc([C@H]2c3ccccc3C[C@H](C(=O)OC)N2C(=O)CCl)cc1` [Compound 3, methyl (1S,3R)-2-(2-chloroacetyl)-1-(4-(methoxycarbonyl)phenyl)-1,2,3,4-tetrahydroisoquinoline-3-carboxylate] the IC50 (786-O; Homo sapiens, 786-0, 24 h) was 0.512 µM, the IC50 (SJSA-1; Homo sapiens) was 0.736 µM and the IC50 (A431; [1]) was > 10 µM.

For `C#CC(=O)N1C(c2ccnc(C)c2)c2ccc(OC)cc2C[C@@H]1CCCC` (stereo in doubt) [Compound 48, 1-((1S,3S)-3-butyl-6-methoxy-1-(2-methylpyridin-4-yl)-3,4-dihydroisoquinolin-2(1H)-yl)prop-2-yn-1-one], the IC50 (786-O; Homo sapiens, 786-0, 24 h) was 0.053 µM, the IC50 (SJSA-1; Homo sapiens) was 0.05 µM and the IC50 (A431; [1]) was 5 µM.

For `C#CC(=O)N1[C@@H](CCCC)Cc2cc(OC)ccc2[C@@H]1c1ccc(S(=O)(=O)NC2CCC2)cc1` [Compound 18, 4-((1S,3S)-3-butyl-6-methoxy-2-propioloyl-1,2,3,4-tetrahydroisoquinolin-1-yl)-N-cyclobutylbenzenesulfonamide], the IC50 (786-O; Homo sapiens, 786-0, 24 h) was 0.004 µM, the IC50 (SJSA-1; Homo sapiens) was 0.008 µM and the IC50 (A431; [1]) was 8.9 µM.

`C#CC(=O)N1[C@@H](CCCC)Cc2cc(OC)ccc2[C@@H]1c1ccc(C(=O)NCCOC)cc1` [Compound 14, 4-((1S,3S)-3-butyl-6-methoxy-2-propioloyl-1,2,3,4-tetrahydroisoquinolin-1-yl)-N-(2 methoxyethyl)benzamide] showed an IC50 (786-O; Homo sapiens, 786-0, 24 h) of 0.024 µM, an IC50 (SJSA-1; Homo sapiens) of 0.07 µM and an IC50 (A431; [1]) of 7.6 µM.
